# Measured values from ChEMBL document CHEMBL1121373, “Synthesis and antifertility activity of 3,9-dihydroxy-5,6,6a alpha,6b beta,11,12,12a beta,12b alpha-octahydrodibenzo[a,g]biphenylene, a structural relative of diethylstilbestrol” (1980).
# What was measured:
# Rattus norvegicus = organism: Rattus norvegicus; test: Effective dose for antifertility activity in rats; type: functional
# [1] = biological target: Estrogen receptor (Rattus norvegicus) (UniProt P06211+Q62986); test: Estrogenic activity in uterotrophic assay in rats on oral administration relative to diethylstilbestrol; type: functional, organism-based
smiles,measurement,setting,value
Oc1ccc2c(c1)CCC1C2C2CCc3cc(O)ccc3C12 (configuration not stated),ED100,Rattus norvegicus,100 µg/day/kg
same,Potency,[1],16%
